Results from patent US20230210849A1, “CADHERIN-11 INHIBITOR FORMULATION AND ITS USES IN IMMUNOTHERAPY” (GEORGETOWN UNIVERSITY, priority 2020, published 2023).
“Also recorded” adds a separate entry of the source.

Tests used:
[1] = system: mT3 pancreatic cancer cells; test: s.c. mT3 pancreatic tumor growth in immunocompetent C57BL/6J transplant mice; type: in vivo, mouse; details: for growth rate of pre-existing tumors: started at average tumor volume 100 mm^3 (FIG. 5H)
Excerpt: The experimental protocols were approved by the Georgetown University Animal Care and Use Committee. A pair of CDH11^−/− mice (Horikawa et al. Dev. Biol. 215: 182-189 (1999)) was kindly provided by Dr. Michael Brenner from Harvard University. A breeding pair of p48-Cre;LSL-Kras^G12D/+;LSL-Trp53^R172H/+ (KPC) mice (Hingorani et al. Cancer Cell 7: 469-483 (2005)) was provided by Dr. Anton Wellstein from Georgetown University. C57BL/6J mice (Cat #000664; Research Resource Identifier (RRID): IMSR_JAX:000664) and Rag1-mutant mice on C57BL/6J background (Cat #002216; RRID: IMSR_JAX:002216) were purchased from The Jackson Laboratory (Bar Harbor, Me.). In transplant experiments, 12-week old C57BL/6J and Rag1-mutant (on C57BL/6J background) mice were bilaterally subcutaneously (s.c.) injected with 5×10^5 mT3 pancreatic cancer cells, derived from a Kras^+/LSL-G12D;Trp53^+/LSL-R172H;Pdx-Cre mouse on C57BL/6 background. Both genders of mice were equally represented throughout all in vivo experiments. Mice were housed in specific pathogen free environment under standard conditions. See, Bandrowski et al. “The Resource Identification Initiative: A cultural shift in publishing,” F1000Res 4: 134 (2015), regarding Research Resource Identifiers (RRIDs),
(§1) Anti-PD1 (InVivoPlus anti-mouse PD1 (CD279), clone RMP1-14, Cat #BP0146, Bio X Cell (Lebanon, N.H.)) was administered intraperitoneally (i.p.) at 250 μg/mouse, 2× week. Gemcitabine (G-4177, LC Laboratories (Woburn, Mass.)) was administered i.p. at 100 mg/kg, 2× week. Treatment with CDH11 monoclonal antibody (mAb), SYN0012 (Roche (Basel, Switzerland)) was administered i.p. at 10 mg/kg, 2× week. Treatment with a small molecule CDH11-inhibitor, SD133, was administered i.p. at 150 mg/kg, 40 mg/kg or 10 mg/kg, 4× week. Stock solution of SD133 at 375 mg/mL was made in DMSO (Sigma (St. Louis, Mo.)), and further diluted in 30% PEG400 (Sigma).

KPC mice (PDAC) = test: Survival of KPC transgenic PDAC mice under treatment; type: in vivo, mouse
Excerpt: (§2) The experimental protocols were approved by the Georgetown University Animal Care and Use Committee. A pair of CDH11^−/− mice (Horikawa et al. Dev. Biol. 215: 182-189 (1999)) was kindly provided by Dr. Michael Brenner from Harvard University. A breeding pair of p48-Cre;LSL-Kras^G12D/+;LSL-Trp53^R172H/+ (KPC) mice (Hingorani et al. Cancer Cell 7: 469-483 (2005)) was provided by Dr. Anton Wellstein from Georgetown University. C57BL/6J mice (Cat #000664; Research Resource Identifier (RRID): IMSR_JAX:000664) and Rag1-mutant mice on C57BL/6J background (Cat #002216; RRID: IMSR_JAX:002216) were purchased from The Jackson Laboratory (Bar Harbor, Me.). In transplant experiments, 12-week old C57BL/6J and Rag1-mutant (on C57BL/6J background) mice were bilaterally subcutaneously (s.c.) injected with 5×10^5 mT3 pancreatic cancer cells, derived from a Kras^+/LSL-G12D;Trp53^+/LSL-R172H;Pdx-Cre mouse on C57BL/6 background. Both genders of mice were equally represented throughout all in vivo experiments. Mice were housed in specific pathogen free environment under standard conditions. See, Bandrowski et al. “The Resource Identification Initiative: A cultural shift in publishing,” F1000Res 4: 134 (2015), regarding Research Resource Identifiers (RRIDs), […]

[2] = Body weight / toxicity of treated mT3 tumor-bearing mice; type: in vivo, mouse
Method: Body weight of C57BL/6J mice engrafted with syngeneic mT3 cells and treated with (A) vehicle (DMSO), (B) gemcitabine, (C) CDH11 mAb, (D) CDH11 mAb+ gemcitabine, (E) SD133 at 150 mg/kg for 2 weeks, (F) SD133 at 150 mg/kg for 2 weeks+ gemcitabine; (G) vehicle (10% DMSO in 30% PEG400), (H) SD133 at 150 mg/kg for 5 weeks, and mice with pre-existing mT3 tumors treated with (I) SD133 at 40 mg/kg, and (J) SD133 at 10 mg/kg. Mouse body weight was measured once or twice a week. Body weight of immunodeficient Rag1-mutant mice on C57BL/6J background with pre-existing syngeneic mT3 tumors treated with (K) vehicle (10% DMSO in 30% PEG400), and (L) SD133 at 40 mg/kg. Gender of mice is indicated in the graphs by commonly used gender symbols. The dose, route and treatment schedule are indicated in colored bars under the x-axes.
as §1

[3] = system: mT3 pancreatic cancer cells; test: s.c. mT3 tumor growth in immunocompromised Rag1-mutant mice; type: in vivo, mouse; details: SD133 40 mg/kg, pre-existing tumors 100 mm^3, Rag1-mutant mice without mature T and B cells (FIG. 5I)
Excerpt: as §2

CDH11 = target: T1, CDH11 (Homo sapiens, UniProt P55287); details: in vitro; previously characterized and validated; cited from earlier work
T1 sequence (P55287 54-796): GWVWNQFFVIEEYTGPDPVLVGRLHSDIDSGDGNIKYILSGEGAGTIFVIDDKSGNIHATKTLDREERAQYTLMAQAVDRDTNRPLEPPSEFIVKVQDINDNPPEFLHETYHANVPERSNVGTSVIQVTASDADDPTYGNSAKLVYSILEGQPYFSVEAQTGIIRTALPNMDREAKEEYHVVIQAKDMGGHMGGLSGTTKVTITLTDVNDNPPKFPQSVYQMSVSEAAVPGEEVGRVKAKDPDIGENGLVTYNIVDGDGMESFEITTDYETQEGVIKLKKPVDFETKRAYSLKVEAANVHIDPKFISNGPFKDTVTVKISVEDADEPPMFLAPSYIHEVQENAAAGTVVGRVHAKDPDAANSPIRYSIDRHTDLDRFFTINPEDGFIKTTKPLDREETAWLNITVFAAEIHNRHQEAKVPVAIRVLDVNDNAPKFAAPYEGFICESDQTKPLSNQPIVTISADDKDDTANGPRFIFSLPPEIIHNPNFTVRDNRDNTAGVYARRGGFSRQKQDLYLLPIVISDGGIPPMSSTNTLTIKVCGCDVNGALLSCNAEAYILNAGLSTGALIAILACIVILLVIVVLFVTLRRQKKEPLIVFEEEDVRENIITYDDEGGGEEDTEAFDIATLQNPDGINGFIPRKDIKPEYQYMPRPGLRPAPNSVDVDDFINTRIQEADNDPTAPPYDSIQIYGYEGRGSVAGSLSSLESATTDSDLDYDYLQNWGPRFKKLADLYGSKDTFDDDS

[4] = single agent, mT3-engrafted mice (FIG. 11)

Structure (SMILES) | tumor growth ([1]; monotherapy, gemcitabine i.p. 100 mg/kg 2x week or CDH11 mAb i.p. 10 mg/kg 2x week (FIG. 5A, 5B)) | first PDAC-related death (KPC mice (PDAC); KPC/CDH11-deficient mice, gemcitabine 6 weeks starting at 100 days of age) | overall survival versus untreated KPC/CDH11-deficient group (KPC mice (PDAC); gemcitabine 6 weeks starting at 100 days of age (FIG. 4B)) | mouse body weight [2, 4] | growth rate of pre-existing tumors ([1]; SD133 10 mg/kg) | growth rate of pre-existing tumors ([1]; SD133 40 mg/kg) | tumor growth ([1]; SD133 150 mg/kg continued throughout the study, 5 weeks (FIG. 5G)) | combinatorial effect with gemcitabine on tumor growth ([1]; SD133 for 2 weeks + gemcitabine i.p. 100 mg/kg 2x week (FIG. 5F)) | tumor growth ([1]; SD133 i.p. 150 mg/kg 4x week for 2 weeks, beginning on day 2 after cancer cell injection (FIG. 5E)) | tumor size versus control after treatment discontinued ([1]; after the 2-week SD133 treatment was discontinued) | efficacy as a monotherapy (summary) ([1]; immunocompetent mT3 model, summary statement) | tumor growth [3] | mouse body weight ([2]; in combination with gemcitabine, mT3-engrafted C57BL/6J mice (FIG. 11)) | toxicity ([2]; mouse, in vivo) | affinity of binding to the CDH11 binding pocket (CDH11)
Nc1ccn([C@@H]2O[C@H](CO)[C@@H](O)C2(F)F)c(=O)n1 [gemcitabine, reference compound] | did not reduce tumor growth | 165 days | improved significantly | does not affect mouse body weight |  |  |  |  |  |  |  |  |  |  | 
Oc1ccc(-c2cccnc2-c2ccccc2)cc1 [SD133] |  |  |  | no decrease in animal weight; also recorded: does not affect mouse body weight | significantly reduced | significantly reduced | reduced tumor growth was observed for the duration of the treatment | not observed | marked reduction in tumor growth | remained significantly smaller than tumors in control animals | remarkably effective | did not suppress tumor growth | does not affect mouse body weight | no sign of toxicity | low μM
